Test results from US8883963B2 (Cadila Healthcare Limited, priority 2007, dated 2014).

What was measured:
[1] = Stability in simulated intestinal fluid; format: in vitro ADME; settings: 2 μM peptidomimetic, simulated intestinal fluid pH 7.5, 37° C.; for half-life at 2 μM: read-out: half-life (t1/2) when incubated with simulated intestinal fluid
Protocol: (§1) Reactions were terminated by the addition of TFA/H2O (15 mL, 10% (v/v)). […] The column was equilibrated with TFA/H20, at a flow rate of 1 mL/min.

[2] = target: T1, human glucagon receptor (Homo sapiens, UniProt P47871); test: In vitro human glucagon antagonist activity (inhibition of cAMP production) in CHO/human glucagon R cells; format: cell-based; settings: with saturated concentration of glucagon peptide
T1 construct: The full-length cDNA was cloned in pcDNA3.1 (Invitrogen); expressed in transfected cells
T1 sequence (P47871 26-477): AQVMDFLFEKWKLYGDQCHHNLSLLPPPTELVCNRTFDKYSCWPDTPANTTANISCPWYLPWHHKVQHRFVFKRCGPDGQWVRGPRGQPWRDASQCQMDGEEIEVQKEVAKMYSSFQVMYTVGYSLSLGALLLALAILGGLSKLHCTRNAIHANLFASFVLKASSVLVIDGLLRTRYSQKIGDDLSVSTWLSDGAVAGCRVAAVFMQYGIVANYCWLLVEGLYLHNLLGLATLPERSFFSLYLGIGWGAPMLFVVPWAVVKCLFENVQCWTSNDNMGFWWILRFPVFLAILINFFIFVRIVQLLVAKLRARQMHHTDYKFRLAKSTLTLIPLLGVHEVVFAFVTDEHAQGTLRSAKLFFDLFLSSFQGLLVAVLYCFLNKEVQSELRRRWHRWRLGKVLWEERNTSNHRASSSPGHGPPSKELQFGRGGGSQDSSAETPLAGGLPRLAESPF

[3] = Stability in simulated gastric fluid; format: in vitro ADME; settings: 2 μM peptidomimetic, simulated gastric fluid pH 1.5, 37° C.; for half-life at 2 μM: read-out: half-life (t1/2) when incubated with simulated gastric fluid
Protocol: as §1

[4] = Stability in liver microsomes; format: in vitro ADME; settings: 2 μM peptidomimetic, human liver microsomes, 37° C.; for half-life at 2 μM: pH 7.8, read-out: half-life (t1/2) when incubated with liver microsomes
Protocol: as §1

[5] = target: DPP IV (Homo sapiens, UniProt P27487); test: Stability against DPP IV enzyme; format: in vitro ADME; settings: 37° C.; for % degradation of peptidomimetics in 24 h when incubated with DPP-IV enzyme: 2 μM peptidomimetic; for half-life at 2 μM: DPP IV enzyme, pH 7.8, 2 μM peptidomimetic, read-out: half-life (t1/2) when incubated with DPP-IV enzyme
DPP IV, sequence (P27487 whole entry, species assumed): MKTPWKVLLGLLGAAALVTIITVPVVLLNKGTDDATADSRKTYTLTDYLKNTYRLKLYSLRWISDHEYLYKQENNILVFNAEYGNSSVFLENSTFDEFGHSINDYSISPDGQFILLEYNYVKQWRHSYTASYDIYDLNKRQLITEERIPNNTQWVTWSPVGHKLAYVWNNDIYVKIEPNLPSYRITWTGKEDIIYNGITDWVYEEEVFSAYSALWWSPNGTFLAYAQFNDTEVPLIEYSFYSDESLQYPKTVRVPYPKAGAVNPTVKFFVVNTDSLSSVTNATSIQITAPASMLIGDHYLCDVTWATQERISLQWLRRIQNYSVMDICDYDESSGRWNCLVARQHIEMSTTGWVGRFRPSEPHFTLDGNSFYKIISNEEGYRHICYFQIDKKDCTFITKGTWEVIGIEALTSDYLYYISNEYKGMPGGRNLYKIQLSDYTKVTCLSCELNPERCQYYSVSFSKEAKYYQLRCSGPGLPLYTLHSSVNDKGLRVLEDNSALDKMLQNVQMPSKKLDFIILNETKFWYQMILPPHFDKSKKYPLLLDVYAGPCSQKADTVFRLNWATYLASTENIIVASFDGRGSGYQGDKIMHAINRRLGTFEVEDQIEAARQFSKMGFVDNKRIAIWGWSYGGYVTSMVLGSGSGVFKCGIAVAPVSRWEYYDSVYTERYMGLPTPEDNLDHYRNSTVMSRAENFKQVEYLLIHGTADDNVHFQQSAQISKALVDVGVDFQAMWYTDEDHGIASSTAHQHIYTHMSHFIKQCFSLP
Protocol: as §1

[6] = tested on: RIN5F (Rat Insulinoma) cells; test: In vitro glucose-dependent insulin secretion (RIN5F cell assay screening protocol); format: cell-based; settings: 16.7 mM glucose load
[7] = target: T2, Human GLP-1 receptor (Homo sapiens, UniProt P43220); test: In vitro Human GLP-1 R agonist activity (cyclic AMP determination) in CHO/human GLP1R cells; format: cell-based
T2 construct: The full-length cDNA was cloned in pcDNA3.1(+); expressed in transfected cells
T2 sequence (P43220 24-463): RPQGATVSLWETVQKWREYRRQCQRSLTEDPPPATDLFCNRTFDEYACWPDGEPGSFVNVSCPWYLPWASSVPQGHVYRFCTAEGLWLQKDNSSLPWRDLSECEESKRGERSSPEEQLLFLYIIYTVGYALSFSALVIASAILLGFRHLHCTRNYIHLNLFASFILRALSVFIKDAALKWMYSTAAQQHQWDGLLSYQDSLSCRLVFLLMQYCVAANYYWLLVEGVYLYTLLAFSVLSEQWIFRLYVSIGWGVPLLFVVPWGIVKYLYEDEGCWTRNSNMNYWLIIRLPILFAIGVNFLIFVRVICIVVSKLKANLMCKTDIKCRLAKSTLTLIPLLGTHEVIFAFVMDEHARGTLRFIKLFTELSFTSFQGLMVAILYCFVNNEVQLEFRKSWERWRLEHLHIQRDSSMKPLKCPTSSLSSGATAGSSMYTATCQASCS

[8] = Stability in human plasma; format: in vitro ADME; settings: 2 μM peptidomimetic, pooled human plasma, 37° C.; for half-life at 2 μM: pH 7.8, read-out: half-life (t1/2) when incubated with human plasma
Protocol: as §1

CCc1cc(OC)ccc1-c1ccc(CC(NC(=O)[C@H](CC(=O)O)NC(=O)[C@H](CO)NC(=O)[C@@H](NC(=O)C(C)(Cc2ccccc2F)NC(=O)[C@@H](NC(=O)CNC(=O)C(CCC#N)NC(=O)C(C)(C)NC(=O)[C@@H](N)Cc2c[nH]cn2)[C@H](C)O)[C@@H](C)O)C(=O)NC(CCCc2ccccc2)C(N)=O)cc1 (single isomer, unassigned) [compound 110]
% degradation of peptidomimetics in 24 h when incubated with simulated intestinal fluid [1]: 00%
half-life at 2 μM [1]: > 24 h
Human Glucagon receptor antagonistic activity shown as inhibition of cAMP production of Glucagon peptide ([2]; 1 nM test compound): 18 ± 0.07 pmol/ml/μg prt
Human Glucagon receptor antagonistic activity shown as inhibition of cAMP production of Glucagon peptide ([2]; 10 nM test compound): 16 ± 0.01 pmol/ml/μg prt
Human Glucagon receptor antagonistic activity shown as inhibition of cAMP production of Glucagon peptide ([2]; 100 nM test compound): 12 ± 0.03 pmol/ml/μg prt
Human Glucagon receptor antagonistic activity shown as inhibition of cAMP production of Glucagon peptide ([2]; 1 μM test compound): 8 ± 0.02 pmol/ml/μg prt
Human Glucagon receptor antagonistic activity shown as inhibition of cAMP production of Glucagon peptide ([2]; 10 μM test compound): 6 ± 0.08 pmol/ml/μg prt
% degradation of peptidomimetics in 24 h when incubated with simulated gastric fluid [3]: 43%
half-life at 2 μM [3]: 4 h
% degradation of peptidomimetics in 24 h when incubated with liver microsomes [4]: 84%
half-life at 2 μM [4]: 2 h
% degradation of peptidomimetics in 24 h when incubated with DPP-IV enzyme [5]: 00%
half-life at 2 μM [5]: > 24 h
Insulin secretion ([6]; 0.1 nM test compd.): 12.0 ± 0.14 pg/µg/h
Insulin secretion ([6]; 1 nM test compd.): 14.3 ± 0.12 pg/µg/h
Insulin secretion ([6]; 10 nM test compd.): 27.8 ± 0.32 pg/µg/h
Human GLP-1 R activity (cAMP release), % activity with respect to control ([7]; 1 nM test compound): 38 ± 0.11%
Human GLP-1 R activity (cAMP release), % activity with respect to control ([7]; 10 nM test compound): 77 ± 0.16%
Human GLP-1 R activity (cAMP release), % activity with respect to control ([7]; 100 nM test compound): 85 ± 0.11%
Human GLP-1 R activity (cAMP release), % activity with respect to control ([7]; 1 μM test compound): 94 ± 0.08%
Human GLP-1 R activity (cAMP release), % activity with respect to control ([7]; 10 μM test compound): 97 ± 0.05%
% degradation of peptidomimetics in 24 h when incubated with human plasma [8]: 00%
half-life at 2 μM [8]: > 24 h

CCc1cc(OC)ccc1-c1ccc(CC(NC(=O)[C@H](CC(=O)O)NC(=O)[C@H](CO)NC(=O)[C@@H](NC(=O)C(C)(Cc2ccccc2F)NC(=O)[C@@H](NC(=O)CNC(=O)C(CCC#N)NC(=O)C(C)(C)NC(=O)[C@@H](N)Cc2c[nH]cn2)[C@H](C)O)[C@@H](C)O)C(=O)NC(CCCc2ccccc2F)C(N)=O)cc1 (single isomer, unassigned) [compound 112]
% degradation of peptidomimetics in 24 h when incubated with simulated intestinal fluid [1]: 00%
half-life at 2 μM [1]: > 24 h
Human Glucagon receptor antagonistic activity shown as inhibition of cAMP production of Glucagon peptide ([2]; 1 nM test compound): 6 ± 0.01 pmol/ml/μg prt
Human Glucagon receptor antagonistic activity shown as inhibition of cAMP production of Glucagon peptide ([2]; 10 nM test compound): 5 ± 0.02 pmol/ml/μg prt
Human Glucagon receptor antagonistic activity shown as inhibition of cAMP production of Glucagon peptide ([2]; 100 nM test compound): 2 ± 0.13 pmol/ml/μg prt
Human Glucagon receptor antagonistic activity shown as inhibition of cAMP production of Glucagon peptide ([2]; 1 μM test compound): 0 pmol/ml/μg prt
Human Glucagon receptor antagonistic activity shown as inhibition of cAMP production of Glucagon peptide ([2]; 10 μM test compound): 0 pmol/ml/μg prt
% degradation of peptidomimetics in 24 h when incubated with simulated gastric fluid [3]: 49%
half-life at 2 μM [3]: 4 h
% degradation of peptidomimetics in 24 h when incubated with liver microsomes [4]: 82%
half-life at 2 μM [4]: 2 h
% degradation of peptidomimetics in 24 h when incubated with DPP-IV enzyme [5]: 00%
half-life at 2 μM [5]: > 24 h
Insulin secretion ([6]; 0.1 nM test compd.): 15.3 ± 0.19 pg/µg/h
Insulin secretion ([6]; 1 nM test compd.): 21.2 ± 0.11 pg/µg/h
Insulin secretion ([6]; 10 nM test compd.): 35.5 ± 0.19 pg/µg/h
Human GLP-1 R activity (cAMP release), % activity with respect to control ([7]; 1 nM test compound): 39 ± 0.10%
Human GLP-1 R activity (cAMP release), % activity with respect to control ([7]; 10 nM test compound): 81 ± 0.08%
Human GLP-1 R activity (cAMP release), % activity with respect to control ([7]; 100 nM test compound): 89 ± 0.09%
Human GLP-1 R activity (cAMP release), % activity with respect to control ([7]; 1 μM test compound): 96 ± 0.11%
Human GLP-1 R activity (cAMP release), % activity with respect to control ([7]; 10 μM test compound): 99 ± 0.16%
% degradation of peptidomimetics in 24 h when incubated with human plasma [8]: 00%
half-life at 2 μM [8]: > 24 h

CCc1cc(OC)ccc1-c1ccc(CC(NC(=O)[C@H](CC(=O)O)NC(=O)[C@H](CO)NC(=O)[C@@H](NC(=O)C(C)(Cc2ccccc2F)NC(=O)[C@@H](NC(=O)CNC(=O)C(CCC#N)NC(=O)C(C)(C)NC(=O)[C@@H](N)Cc2c[nH]cn2)[C@H](C)O)[C@H](C)O)C(=O)NC(CCCc2ccccc2)C(N)=O)cc1 (single isomer, unassigned) [compound 114]
% degradation of peptidomimetics in 24 h when incubated with simulated intestinal fluid [1]: 00%
half-life at 2 μM [1]: > 24 h
Human Glucagon receptor antagonistic activity shown as inhibition of cAMP production of Glucagon peptide ([2]; 1 nM test compound): 4 ± 0.02 pmol/ml/μg prt
Human Glucagon receptor antagonistic activity shown as inhibition of cAMP production of Glucagon peptide ([2]; 10 nM test compound): 2 ± 0.15 pmol/ml/μg prt
Human Glucagon receptor antagonistic activity shown as inhibition of cAMP production of Glucagon peptide ([2]; 100 nM test compound): 0 pmol/ml/μg prt
Human Glucagon receptor antagonistic activity shown as inhibition of cAMP production of Glucagon peptide ([2]; 1 μM test compound): 0 pmol/ml/μg prt
Human Glucagon receptor antagonistic activity shown as inhibition of cAMP production of Glucagon peptide ([2]; 10 μM test compound): 0 pmol/ml/μg prt
% degradation of peptidomimetics in 24 h when incubated with simulated gastric fluid [3]: 52%
half-life at 2 μM [3]: 4 h
% degradation of peptidomimetics in 24 h when incubated with liver microsomes [4]: 81%
half-life at 2 μM [4]: 2 h
% degradation of peptidomimetics in 24 h when incubated with DPP-IV enzyme [5]: 00%
half-life at 2 μM [5]: > 24 h
Insulin secretion ([6]; 0.1 nM test compd.): 16.6 ± 0.41 pg/µg/h
Insulin secretion ([6]; 1 nM test compd.): 22.9 ± 0.32 pg/µg/h
Insulin secretion ([6]; 10 nM test compd.): 36.6 ± 0.19 pg/µg/h
Human GLP-1 R activity (cAMP release), % activity with respect to control ([7]; 1 nM test compound): 82 ± 0.22%
Human GLP-1 R activity (cAMP release), % activity with respect to control ([7]; 10 nM test compound): 87 ± 0.12%
Human GLP-1 R activity (cAMP release), % activity with respect to control ([7]; 100 nM test compound): 92 ± 0.14%
Human GLP-1 R activity (cAMP release), % activity with respect to control ([7]; 1 μM test compound): 99 ± 0.22%
Human GLP-1 R activity (cAMP release), % activity with respect to control ([7]; 10 μM test compound): 99 ± 0.26%
% degradation of peptidomimetics in 24 h when incubated with human plasma [8]: 00%
half-life at 2 μM [8]: > 24 h

CCc1cc(OC)ccc1-c1ccc(CC(NC(=O)[C@H](CC(=O)O)NC(=O)[C@H](CO)NC(=O)[C@@H](NC(=O)C(C)(Cc2ccccc2F)NC(=O)[C@@H](NC(=O)CNC(=O)C(CCC#N)NC(=O)C(C)(C)NC(=O)[C@@H](N)Cc2c[nH]cn2)[C@H](C)O)[C@H](C)O)C(=O)NC(CCCc2ccccc2F)C(N)=O)cc1 (single isomer, unassigned) [compound 116]
% degradation of peptidomimetics in 24 h when incubated with simulated intestinal fluid [1]: 00%
half-life at 2 μM [1]: > 24 h
Human Glucagon receptor antagonistic activity shown as inhibition of cAMP production of Glucagon peptide ([2]; 1 nM test compound): 2 ± 0.03 pmol/ml/μg prt
Human Glucagon receptor antagonistic activity shown as inhibition of cAMP production of Glucagon peptide ([2]; 10 nM test compound): 0 pmol/ml/μg prt
Human Glucagon receptor antagonistic activity shown as inhibition of cAMP production of Glucagon peptide ([2]; 100 nM test compound): 0 pmol/ml/μg prt
Human Glucagon receptor antagonistic activity shown as inhibition of cAMP production of Glucagon peptide ([2]; 1 μM test compound): 0 pmol/ml/μg prt
Human Glucagon receptor antagonistic activity shown as inhibition of cAMP production of Glucagon peptide ([2]; 10 μM test compound): 0 pmol/ml/μg prt
% degradation of peptidomimetics in 24 h when incubated with simulated gastric fluid [3]: 43%
half-life at 2 μM [3]: 4 h
% degradation of peptidomimetics in 24 h when incubated with liver microsomes [4]: 84%
half-life at 2 μM [4]: 2 h
% degradation of peptidomimetics in 24 h when incubated with DPP-IV enzyme [5]: 00%
half-life at 2 μM [5]: > 24 h
Insulin secretion ([6]; 0.1 nM test compd.): 16.4 ± 0.12 pg/µg/h
Insulin secretion ([6]; 1 nM test compd.): 22.7 ± 0.17 pg/µg/h
Insulin secretion ([6]; 10 nM test compd.): 36.6 ± 0.05 pg/µg/h
Human GLP-1 R activity (cAMP release), % activity with respect to control ([7]; 1 nM test compound): 55 ± 0.16%
Human GLP-1 R activity (cAMP release), % activity with respect to control ([7]; 10 nM test compound): 88 ± 0.13%
Human GLP-1 R activity (cAMP release), % activity with respect to control ([7]; 100 nM test compound): 92 ± 0.11%
Human GLP-1 R activity (cAMP release), % activity with respect to control ([7]; 1 μM test compound): 99 ± 0.07%
Human GLP-1 R activity (cAMP release), % activity with respect to control ([7]; 10 μM test compound): 99 ± 0.09%
% degradation of peptidomimetics in 24 h when incubated with human plasma [8]: 00%
half-life at 2 μM [8]: > 24 h
